Experiments:
[1] = system: bone marrow / extramedullary hematopoiesis; test: Example Seven: bone marrow and liver biopsy in healthy beagle dogs; assay type: in vivo; settings: 18 mg/kg i.v. one week, then 40 mg/kg one week
Method: Five healthy beagle dogs (males and females) were given 18 mg/kg intravenously of zwitterionic piperazine compound (HEPES) for one week. The dose was increased to 40 mg/kg for one week. […] This is also consistent with immune stimulating effect.

[2] = Example Fourteen: patient with ventricular irritability; assay type: in vivo, human; settings: 3000 mg orally for seven days; baseline 4-6 per minute
Method: A person with ventricular irritability, 4-6 premature ventricular contractions per minute (PVCs), was not controlled with Prancetyl, Quinidine, or beta blockade. They were taking no medicines and was started on 3000 mg zwitterionic piperazine orally for seven days. At the end of seven days, the patient had only occasional PVC (1 every 10 minutes).

[3] = system: bone marrow / extramedullary hematopoiesis; test: Bone marrow and extramedullary hematopoiesis, in vivo tests; set-up: species or system dogs and humans
Method: Further, the zwitterionic compounds reduce the mean inhibitory concentration (MIC) of susceptible […] in culture (in vitro) and enhances antibiotic activity in vivo. The zwitterionic compound may be used alone or with a carrier, such as sterile water or a saline solution. Enhancement and inducement of extramedullary hematopoiesis has been found in amounts of HEPES administered in an amount of about 18-20 mg/kilograms or greater for e.g. 40 mg/kg of body weight in dogs with daily intravenous injections over a defined time period of 1-2 weeks.

[4] = ADA: data of Schwarzenbach et al. (1955); cited from earlier work
[5] = intravenous and oral application

Question: What does the source list for `O=S(=O)(O)CCN1CCN(CCO)CC1` [HEPES, N-2 Hydroxyethylpiperazine-N'-2 Ethane Sulfonic Acid]?
Answer: circulating histiocytes and giant platelets ([1]; all animals): increase in circulating histiocytes and giant platelets; bone marrow biopsy ([1]; all dogs): the bone marrow became hypercellular; liver biopsy (extramedullary hematopoiesis) ([1]; all dogs): presence of megakaryocyte production consistent with induced extramedullary hematopoiesis; premature ventricular contractions (PVC) [2]: 1 every 10 minutes; minimal effective dose ([3]; Canis lupus familiaris, iv, dogs, daily i.v., 1-2 weeks, "or greater", read-out: amount of HEPES giving enhancement and inducement of extramedullary hematopoiesis): 18 to 20 mg/kg; extramedullary hematopoiesis [3, 5]: induce extramedullary hematopoiesis in patients; hypercellular bone marrow [3, 5]: induce hypercellular bone marrow; Metal-Buffer Binding Constants Log KM, Mn^2+ [4]: Negl
